Test results: ChEMBL document CHEMBL1201862, “PubChem BioAssay data set” (2004)
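Test compounds were applied to cells in 96-well plates for 48 hours at 5 doses. GI50: concentration for 50% inhibition of growth.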 The source made the active and inactive calls. Cut-off read from the data, not from the text of the source: active = GI50 up to about 1.1 µM and inactive = higher.

Experiments:
Test in all cases: NCI anticancer screen, dose series, 48 h
RPMI-8226 = test system: RPMI-8226
SK-MEL-28 = test system: SK-MEL-28
MDA-MB-231 = test system: MDA-MB-231
M14 = test system: M14
ACHN = test system: ACHN
SK-MEL-2 = test system: SK-MEL-2
SR = test system: SR
EKVX = test system: EKVX
SF-268 = test system: SF-268
OVCAR-8 = test system: OVCAR-8
HOP-62 = test system: HOP-62
LOX IMVI = test system: LOX IMVI
OVCAR-5 = test system: OVCAR-5
HCT-15 = test system: HCT-15
SW-620 = test system: SW-620
SK-OV-3 = test system: SK-OV-3
BT-549 = test system: BT-549
SF-295 = test system: SF-295
RXF 393 = test system: RXF 393
NCI-H460 = test system: NCI-H460

SMILES | GI50 (RPMI-8226) | GI50 (SK-MEL-28) | GI50 (MDA-MB-231) | GI50 (M14) | GI50 (ACHN) | GI50 (SK-MEL-2) | GI50 (SR) | GI50 (EKVX) | GI50 (SF-268) | GI50 (OVCAR-8) | GI50 (HOP-62) | GI50 (LOX IMVI) | GI50 (OVCAR-5) | GI50 (HCT-15) | GI50 (SW-620) | GI50 (SK-OV-3) | GI50 (BT-549) | GI50 (SF-295) | GI50 (RXF 393) | GI50 (NCI-H460)
O=P(OCc1ccccc1)(OCc1ccccc1)C(O)/C=C/c1ccccc1 (stereo not drawn) | 23.6 µM (inactive) | 37.9 µM (inactive) | 22.3 µM (inactive) | 18.1 µM (inactive) | 29.1 µM (inactive) | 20.7 µM (inactive) | 19.9 µM (inactive) | 33.3 µM (inactive) | 16.9 µM (inactive) | 24 µM (inactive) | 21.8 µM (inactive) | 14.9 µM (inactive) | 30.6 µM (inactive) | 36.8 µM | 26.1 µM (inactive) | 45.1 µM (inactive) | 28.2 µM (inactive) | 20.3 µM (inactive) | 33.8 µM (inactive) | –
O/N=C1/C2CC3CC1(c1ccccc1)CC(/C3=N/O)/C2=N\O (stereo not drawn) | > 100 µM (inactive) | > 100 µM (inactive) | > 100 µM (inactive) | > 100 µM (inactive) | > 100 µM (inactive) | > 100 µM (inactive) | > 100 µM (inactive) | > 100 µM (inactive) | – | > 100 µM (inactive) | > 100 µM (inactive) | > 100 µM (inactive) | > 100 µM (inactive) | > 100 µM | > 100 µM (inactive) | > 100 µM (inactive) | > 100 µM (inactive) | > 100 µM (inactive) | > 100 µM (inactive) | > 100 µM (inactive)
COc1ccc(NS(=O)(=O)c2ccc(NC(NC(=O)CC(C)C)(C(F)(F)F)C(F)(F)F)cc2)nn1 | > 100 µM (inactive) | > 100 µM (inactive) | > 100 µM (inactive) | > 100 µM (inactive) | > 100 µM (inactive) | > 100 µM (inactive) | > 100 µM (inactive) | > 100 µM (inactive) | > 100 µM (inactive) | > 100 µM (inactive) | > 100 µM (inactive) | > 100 µM (inactive) | > 100 µM (inactive) | > 100 µM | > 100 µM (inactive) | > 100 µM (inactive) | > 100 µM (inactive) | > 100 µM (inactive) | > 100 µM (inactive) | > 100 µM (inactive)
O=C1c2ccccc2CN1c1ccc(O)cc1 | > 100 µM (inactive) | > 100 µM (inactive) | > 100 µM (inactive) | > 100 µM (inactive) | > 100 µM (inactive) | > 100 µM (inactive) | > 100 µM (inactive) | > 100 µM (inactive) | > 100 µM (inactive) | > 100 µM (inactive) | > 100 µM (inactive) | > 100 µM (inactive) | > 100 µM (inactive) | > 100 µM | > 100 µM (inactive) | > 100 µM (inactive) | > 100 µM (inactive) | > 100 µM (inactive) | > 100 µM (inactive) | > 100 µM (inactive)
CCOC(=O)CCC(NC(=O)c1ccc(Nc2nc3ccccc3nc2C(=O)OCC)s1)C(=O)OCC (stereo not drawn) | > 100 µM (inactive) | > 100 µM (inactive) | 67.1 µM (inactive) | > 100 µM (inactive) | – | > 100 µM (inactive) | > 100 µM (inactive) | > 100 µM (inactive) | 98.4 µM (inactive) | 19.5 µM (inactive) | – | > 100 µM (inactive) | > 100 µM (inactive) | > 100 µM | > 100 µM (inactive) | > 100 µM (inactive) | 46 µM (inactive) | – | 66.1 µM (inactive) | > 100 µM (inactive)
COC(=O)C1Cc2c([nH]c3ccccc23)C(c2cccc(O)c2)N1 (stereo not drawn) | 28.4 µM (inactive) | 28.7 µM (inactive) | 22.3 µM (inactive) | 21.3 µM (inactive) | 60 µM (inactive) | 27 µM (inactive) | 28.2 µM (inactive) | 40.3 µM (inactive) | 40.8 µM (inactive) | 32.1 µM (inactive) | 75.9 µM (inactive) | 50.7 µM (inactive) | 28.8 µM (inactive) | 34 µM | 24.3 µM (inactive) | 56.4 µM (inactive) | 22.3 µM (inactive) | 45.7 µM (inactive) | 25.8 µM (inactive) | 26.3 µM (inactive)
CC(C)(Cc1ccccc1)N1C(=O)N1C(C)(C)Cc1ccccc1 | 16.5 µM (inactive) | > 100 µM (inactive) | 28.1 µM (inactive) | 34.8 µM (inactive) | – | 19.7 µM (inactive) | 20.6 µM (inactive) | 92.7 µM (inactive) | 53.2 µM (inactive) | > 100 µM (inactive) | – | 17.7 µM (inactive) | 19.9 µM (inactive) | 21.4 µM | 57 µM (inactive) | 57.4 µM (inactive) | 29.4 µM (inactive) | – | 14.8 µM (inactive) | > 100 µM (inactive)
Cc1cc(C)c2c(O)cc(-c3ccc(Cl)cc3)nc2n1 | 30.3 µM (inactive) | 28.3 µM (inactive) | > 27.9 µM (inactive) | 25.7 µM (inactive) | 48 µM (inactive) | 47 µM (inactive) | 37.6 µM (inactive) | > 56.2 µM (inactive) | > 100 µM (inactive) | > 100 µM (inactive) | 44.8 µM (inactive) | 35.5 µM (inactive) | > 100 µM (inactive) | 21.9 µM | 26.6 µM (inactive) | 84.9 µM (inactive) | 23.6 µM (inactive) | 28.2 µM (inactive) | 43.7 µM (inactive) | 25.8 µM (inactive)
Cc1ccc(-c2c3nc(c(-c4ccc(C)cc4)c4ccc([nH]4)c(-c4ccc(OCC5COC(C)(C)O5)cc4)c4nc(c(-c5ccc(C)cc5)c5ccc2[nH]5)C=C4)C=C3)cc1 (stereo not drawn) | > 100 µM (inactive) | > 31.6 µM (inactive) | > 31.6 µM (inactive) | > 31.6 µM (inactive) | > 31.6 µM (inactive) | > 31.6 µM (inactive) | > 31.6 µM (inactive) | 13.5 µM (inactive) | > 31.6 µM (inactive) | 25.1 µM (inactive) | > 31.6 µM (inactive) | > 31.6 µM (inactive) | > 31.6 µM (inactive) | > 31.6 µM | > 31.6 µM (inactive) | > 10 µM (inactive) | > 100 µM (inactive) | 20.5 µM (inactive) | > 10 µM (inactive) | > 31.6 µM (inactive)
CC(=O)NC1C(OCc2ccccc2)OC(CO)C(O)C1OC(C)C(=O)N[C@@H](C)C(=O)N[C@H](CCC(=O)NCCNCCNc1c2ccccc2nc2cccc([N+](=O)[O-])c12)C(N)=O (stereo partly drawn) | 0.0698 µM (active) | 0.245 µM (active) | 0.177 µM (active) | 0.0993 µM (active) | 0.0557 µM (active) | 0.048 µM (active) | 0.0794 µM (active) | 0.199 µM (active) | 0.164 µM (active) | 0.11 µM (active) | 0.192 µM (active) | 0.136 µM (active) | 0.336 µM (active) | 0.153 µM | 0.0266 µM (active) | 0.348 µM (active) | 0.0698 µM (active) | 0.207 µM (active) | 0.0169 µM (active) | < 0.01 µM (active)
COC(=O)C1=C(OC(=O)/C(=C/c2ccccc2)c2ccc(OC)cc2)C(C(=O)OC)[C@@]2(O)[C@@H](C(=O)OC)[C@H](C)C[C@@H]1[C@@H]2C(=O)OC (stereo partly drawn) | > 100 µM (inactive) | > 100 µM (inactive) | 18.7 µM (inactive) | > 100 µM (inactive) | > 100 µM (inactive) | > 100 µM (inactive) | > 100 µM (inactive) | > 100 µM (inactive) | > 100 µM (inactive) | 35.6 µM (inactive) | > 100 µM (inactive) | > 100 µM (inactive) | 65.6 µM (inactive) | > 100 µM | > 100 µM (inactive) | 80.4 µM (inactive) | 21 µM (inactive) | > 100 µM (inactive) | 17.8 µM (inactive) | > 100 µM (inactive)
CC(=O)c1ccc2c3c1[C@H]1O[C@H]1c1cccc(c1-3)[C@@H]1O[C@H]21 | 2.09 µM (inactive) | 1.79 µM (inactive) | 2.14 µM (inactive) | 1.61 µM (inactive) | 1.94 µM (inactive) | 2.74 µM (inactive) | 4.57 µM (inactive) | 1.9 µM (inactive) | 1.51 µM (inactive) | 1.56 µM (inactive) | 2.39 µM (inactive) | 0.31 µM (active) | 1.95 µM (inactive) | 0.959 µM | 0.855 µM (active) | 5.32 µM (inactive) | 1.87 µM (inactive) | 4.52 µM (inactive) | 1.93 µM (inactive) | –
O=C(CCCC(=O)N1CC(CCl)c2ccc([N+](=O)[O-])cc21)N1CC(CCl)c2ccc([N+](=O)[O-])cc21 (stereo not drawn) | 43.7 µM (inactive) | > 100 µM (inactive) | > 100 µM (inactive) | > 100 µM (inactive) | > 100 µM (inactive) | > 100 µM (inactive) | 9.1 µM (inactive) | – | > 100 µM (inactive) | – | > 100 µM (inactive) | > 100 µM (inactive) | > 100 µM (inactive) | > 100 µM | > 100 µM (inactive) | > 100 µM (inactive) | > 100 µM (inactive) | > 100 µM (inactive) | > 100 µM (inactive) | 38.4 µM (inactive)
COc1ccc(N2C(N)=C(C#N)C(C#N)(C#N)C2c2cccc([N+](=O)[O-])c2)cc1 (stereo not drawn) | 11.6 µM (inactive) | 8.57 µM (inactive) | 14.9 µM (inactive) | 17.3 µM (inactive) | 14.2 µM (inactive) | 18.1 µM (inactive) | 8.47 µM (inactive) | 20.7 µM (inactive) | 20.6 µM (inactive) | 17.9 µM (inactive) | 16.3 µM (inactive) | 13.5 µM (inactive) | 17.5 µM (inactive) | 15.5 µM | 11.2 µM (inactive) | 20.2 µM (inactive) | 17.9 µM (inactive) | 19.1 µM (inactive) | 9.23 µM (inactive) | –
